From article PMC7698926 (International Journal of Molecular Sciences, 2020)
In brackets after ≈: the same amount, converted by molar mass. Several values for one entry are separate records, joined by “and”; a condition that tells them apart may be missing. Equal entries are not always repeated. Where two headings read alike, the source gives them in different places. Where a SMILES comes first, the peptide text is derived from it.

What was measured:
X. oryzae pv. oryzae [1] = settings: X. oryzae pv. oryzae (Gram-negative); purified peptide; LB medium, 28 °C, 24 h
C. fangii [2] = tested on: C. fangii
[3] = tested on: Gram-negative and Gram-positive bacteria; settings: range over C. fangii, R. solanacearum, C. michiganensis, X. oryzae pv oryzae, X. oryzae pv. oryzicola, B. subtilis (168)
C. michiganensis [4] = tested on: C. michiganensis
R. solanacearum [5] = settings: R. solanacearum (Gram-negative); purified peptide; LB medium, 28 °C, 24 h
X. oryzae pv. oryzicola = X. oryzae pv. oryzicola (Gram-negative); purified peptide; LB medium, 28 °C, 24 h
X. oryzae pv. oryzae [6] = format: cell-based, Xanthomonas oryzae pv. oryzae; settings: X. oryzae pv. oryzae (G-); extracellular peptide from B. subtilis strain; mean ± SD, three independent experiments; control SCK6-e 0.66 ±0.033
C. michiganensis [7] = format: cell-based, Clavibacter michiganensis subsp
C. fangii [8] = format: cell-based, Clavibacter fangii
R. solanacearum [9] = format: cell-based, Ralstonia solanacearum; settings: R. solanacearum (G-); extracellular peptide from B. subtilis strain; mean ± SD, three independent experiments; control SCK6-e 0.75 ±0.050
X. oryzae pv. oryzae [10] = tested on: X. oryzae pv. oryzae; parameters: species or system rice; settings: control SCK6-e
[11] = tested on: C. fangii, X. oryzae pv. oryzae, C. michiganensis, and R. solanacearum; format: physicochemical; settings: heated 30 min at 4 °C, 50 °C, 80 °C and 100 °C; agar diffusion on four indicator bacteria; compared to control SCK6-e
X. oryzae pv. oryzae [12] = format: cell-based, Xanthomonas oryzae pv. oryzae; settings: peptide at MIC; 28 °C, OD600 at 2–24 h; compared with polymyxin B
C. fangii [13] = test: Salt sensitivity assay; format: cell-based, Clavibacter fangii; settings: peptide 1 × MIC, OD600
X. oryzae pv. oryzae [14] = format: cell-based, Xanthomonas oryzae pv. oryzae; settings: peptide at MIC, 10 μM DCFH-DA, 28 °C, after 30 min, upward trend at 120 min; compared to untreated strain
X. oryzae pv. oryzae [15] = format: cell-based, Xanthomonas oryzae pv. oryzae; settings: peptide 1 × MIC, OD600
Magnaporthe oryzae = format: cell-based; settings: peptide 260 μg/mL in PDA, 28 °C, 96 h; buffer control
X. oryzae pv. oryzae [16] = format: cell-based, Xanthomonas oryzae pv. oryzae; settings: peptide at MIC, 2 h, 28 °C; X. oryzae pv. oryzae exponential phase; flow cytometry; control 0.07%
X. oryzae pv. oryzae [17] = format: cell-based, Xanthomonas oryzae pv. oryzae; settings: peptide at MIC, 2 h, 28 °C; PBS control

With CSCC[C@H](NC(=O)[C@@H](NC(=O)[C@@H](NC(=O)[C@H](CC(N)=O)NC(=O)[C@H](CC(N)=O)NC(=O)[C@H](CC(C)C)NC(=O)[C@H](CCCNC(=N)N)NC(=O)[C@H](CC(C)C)NC(=O)[C@@H](NC(=O)[C@H](CO)NC(=O)[C@H](CO)NC(=O)[C@@H](NC(=O)[C@@H]1CCCN1C(=O)[C@@H](NC(=O)CNC(=O)[C@@H](N)CC(C)C)C(C)C)C(C)C)[C@@H](C)O)[C@@H](C)O)[C@@H](C)O)C(=O)N[C@@H](CC(N)=O)C(=O)N1CCC[C@H]1C(=O)N[C@@H](CS)C(=O)N[C@@H](CC(C)C)C(=O)N1CCC[C@H]1C(=O)N[C@@H](CO)C(=O)O [OrR935] (H-LGVPVSSTLRLNNTTMNPCLPS-OH) the MIC (X. oryzae pv. oryzae [1]) was 44.0 µM (≈ 102 µg/mL), the MIC (C. fangii [2]; 24 h) was 37.7 µM (≈ 87.3 µg/mL) and the “MIC (range over six bacteria)” value [3] was 31.4 to 44.0 µM. For the same compound, the MIC (C. michiganensis [4]; 24 h) was 34.6 µM (≈ 80.1 µg/mL), the MIC (R. solanacearum [5]) was 33 µM (≈ 76.4 µg/mL) and the MIC (X. oryzae pv. oryzicola) was 31.4 µM (≈ 72.7 µg/mL). For the same compound, the MIC (B. subtilis (168); 168, 24 h) was 36.1 µM (≈ 83.6 µg/mL).

In the case of Polymyxin B [reference compound], the MIC (X. oryzae pv. oryzae [1]) is reported as 5.0 µM, the MIC (C. fangii [2]) is reported as 25.0 µM and the “MIC (range over six bacteria)” value [3] is reported as 5 to 25 µM and 5.0 to 25.0 µM. For the same compound, the MIC (C. michiganensis [4]) was 12.5 µM, the MIC (R. solanacearum [5]) was 7.5 µM and the MIC (X. oryzae pv. oryzicola) was 10.0 µM. It also gave an MIC (B. subtilis (168); B. subtilis (168) (Gram-positive), purified peptide, LB medium, 28 °C, 24 h) of 15.0 µM.

For “LSFCSCIRTNLDGFDQKLQWNPHFY [OrR1135, candidate antimicrobial peptide from the O. rufipogon cDNA library, 25 amino acids]”, the bacteriostatic diameter (X. oryzae pv. oryzae [6]) was 1.2 ±0.11 cm, the bacteriostatic diameter (C. michiganensis [7]) was 1.2 ±0.033 cm and the bacteriostatic diameter (C. fangii [8]) was 1.1 ±0.060 cm. For the same compound, the bacteriostatic diameter (R. solanacearum [9]) was 1.4 ±0.050 cm.

In the case of CC[C@H](C)[C@H](NC(=O)[C@H](CO)NC(=O)[C@H](CCCCN)NC(=O)[C@H](CCCNC(=N)N)NC(=O)[C@@H](NC(=O)[C@H](CCC(=O)O)NC(=O)[C@H](Cc1ccc(O)cc1)NC(=O)[C@H](CS)NC(=O)[C@H](Cc1c[nH]cn1)NC(=O)[C@@H](NC(=O)[C@H](Cc1c[nH]cn1)NC(=O)[C@H](CCCCN)NC(=O)[C@H](CCC(=O)O)NC(=O)[C@H](CO)NC(=O)[C@H](CO)NC(=O)[C@@H](NC(=O)[C@H](CS)NC(=O)[C@H](CC(N)=O)NC(=O)[C@H](Cc1ccc(O)cc1)NC(=O)[C@@H](NC(=O)[C@H](Cc1c[nH]cn1)NC(=O)[C@@H](NC(=O)[C@H](Cc1ccc(O)cc1)NC(=O)[C@@H](NC(=O)[C@H](CC(=O)O)NC(=O)[C@@H](NC(=O)[C@@H](N)CC(C)C)C(C)C)[C@@H](C)CC)[C@@H](C)O)C(C)C)[C@@H](C)O)[C@@H](C)O)[C@@H](C)CC)C(=O)N[C@@H](CO)C(=O)O [OrR214] (H-LVDIYTHVYNCTSSEKHTHCYEIRKSIS-OH), the bacteriostatic diameter (X. oryzae pv. oryzae [6]) is reported as 1.3 ±0.058 cm, the “necrotic leaf lesion growth on detached rice leaves” value (X. oryzae pv. oryzae [10]; X. oryzae pv. oryzae mixed with peptide, leaf clipping, 28 °C, 7 d) is reported as “decreased necrotic leaf lesion growth” and the “incidence of rice leaves” value (X. oryzae pv. oryzae [10]; X. oryzae pv. oryzae, 7 d post-inoculation, lesion length) is reported as “decreased significantly”. For the same compound, the “antimicrobial activity after heating (thermal stability)” value [11] was “significant activity”, the “time-kill, bacterial growth after peptide treatment” value (X. oryzae pv. oryzae [12]) was “hardly grew after 12 h of treatment” and the MIC (C. fangii [2]; 24 h) was 10.7 µM (≈ 35.6 µg/mL). For the same compound, the “antimicrobial activity at 150 mM Na+” value (C. fangii [13]; NaCl 150 mM) was “slightly affected”, the “antibacterial activity at 50–100 mM Na+” value (C. fangii [13]; NaCl 50, 100 mM) was “significant bacteriostatic effect” and the bacteriostatic diameter (C. michiganensis [7]) was 1.2 ±0.033 cm. For the same compound, the “ROS production, DCFH-DA fluorescence intensity” value (X. oryzae pv. oryzae [14]) was “significantly increased”, the “antimicrobial activity at 150 mM Na+” value (X. oryzae pv. oryzae [15]; NaCl 150 mM) was “slightly affected” and the “antibacterial activity at 50–100 mM Na+” value (X. oryzae pv. oryzae [15]; NaCl 50, 100 mM) was “significant bacteriostatic effect”. For the same compound, the bacteriostatic diameter (C. fangii [8]) was 1.1 ±0.033 cm, the MIC (C. michiganensis [4]; 24 h) was 10.5 µM (≈ 34.9 µg/mL) and the bacteriostatic diameter (R. solanacearum [9]) was 1.3 ±0.050 cm. The “mycelium growth of Magnaporthe oryzae” value (Magnaporthe oryzae) was “significantly inhibit the mycelium growth”, the MIC (B. subtilis (168); 168, 24 h) was 8.3 µM (≈ 27.6 µg/mL) and the “PI staining rate (PI uptake)” value (X. oryzae pv. oryzae [16]) was about 37.1%. For the same compound, the “cell morphology by SEM and TEM” value (X. oryzae pv. oryzae [17]) was “severe damage to the cell membrane surface”.
